Measured values taken from PubChem BioAssay AID330 (DTP/NCI, 2004).
“And” between values parts separate entries of the source, which are not always exact repeats. Identical values can stand only once. Toxic doses and inconclusive results are not listed.

System: P388 leukemia ip, CD2F1 mice, survival T/C
Assay: NCI In Vivo Anticancer Drug Screen. Data for tumor model P388 Leukemia (intraperitoneal) in CD2F1 (CDF1) mice
Details: endpoint: median survival time, higher = longer survival
Procedure, shortened: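 Mice carrying the transplanted tumor received test compound or vehicle. Survival was recorded in each group, and the value is the treated-group measurement divided by that of the vehicle-treated control group.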

[1] = dose: 12.5 mg/kg/injection, schedule: Q01DX009 (ip), vehicle: saline with Tween-80
[2] = dose: 25.0 mg/kg/injection, schedule: Q01DX009 (ip), vehicle: saline with Tween-80
[3] = dose: 50.0 mg/kg/injection, schedule: Q01DX009 (ip), vehicle: saline with Tween-80
[4] = dose: 100.0 mg/kg/injection, schedule: Q01DX009 (ip), vehicle: saline with Tween-80
[5] = dose: 100.0 mg/kg/injection, schedule: Q01DX001 (ip), vehicle: Klucel (hydroxypropylcellulose) (HPC)
[6] = dose: 60.0 mg/kg/injection, schedule: Q01DX005 (ip), vehicle: saline with Tween-80
[7] = dose: 120.0 mg/kg/injection, schedule: Q01DX005 (ip), vehicle: saline with Tween-80
[8] = dose: 240.0 mg/kg/injection, schedule: Q01DX005 (ip), vehicle: saline with Tween-80
[9] = dose: 60.0 mg/kg/injection, schedule: Q01DX005 (ip), vehicle: saline
[10] = dose: 100.0 mg/kg/injection, schedule: Q01DX009 (ip), vehicle: saline
[11] = dose: 200.0 mg/kg/injection, schedule: Q01DX009 (ip), vehicle: saline
[12] = dose: 200.0 mg/kg/injection, schedule: Q01DX009 (ip), vehicle: saline with Tween-80
[13] = dose: 100.0 mg/kg/injection, schedule: Q04DX003 (ip), vehicle: saline with Tween-80
[14] = dose: 200.0 mg/kg/injection, schedule: Q04DX003 (ip), vehicle: saline with Tween-80
[15] = dose: 100.0 mg/kg/injection, schedule: Q04DX003 (ip), vehicle: saline
[16] = dose: 200.0 mg/kg/injection, schedule: Q04DX003 (ip), vehicle: saline
[17] = dose: 50.0 mg/kg/injection, schedule: Q01DX005 (ip), vehicle: saline

NNC(=O)C(N)=O
T/C [1]: 100 % of control | T/C [2]: 104 % of control | T/C [3]: 100 % of control | T/C [4]: 97 % of control

CCOC(=O)N[C@H]1CCc2cc(OC)c(OC)c(OC)c2-c2ccc(SC)c(=O)cc21
T/C (dose: 0.75 mg/kg/injection, schedule: Q01DX009 (ip), vehicle: other): 163 % of control | T/C (dose: 1.5 mg/kg/injection, schedule: Q01DX009 (ip), vehicle: other): 172 % of control | T/C (dose: 3.0 mg/kg/injection, schedule: Q01DX009 (ip), vehicle: other): 109 % of control and 114 % of control

O=C(O)c1c(Cl)nc2n1CCS2
T/C (dose: 50.0 mg/kg/injection, schedule: Q01DX001 (ip), vehicle: Klucel (hydroxypropylcellulose) (HPC)): 97 % of control | T/C [5]: 101 % of control | T/C (dose: 200.0 mg/kg/injection, schedule: Q01DX001 (ip), vehicle: Klucel (hydroxypropylcellulose) (HPC)): 104 % of control

CC(C)(O)c1cc2nc3ccccc3nc2n1CCO
T/C [6]: 109 % of control | T/C [7]: 107 % of control | T/C [8]: 108 % of control

CCN(CCO)CC(O)Cn1cnc2c(N)ncnc21 (stereo not given) (tested in a mixture with another compound)
T/C [9]: 97 % of control | T/C (dose: 120.0 mg/kg/injection, schedule: Q01DX005 (ip), vehicle: saline): 100 % of control | T/C (dose: 240.0 mg/kg/injection, schedule: Q01DX005 (ip), vehicle: saline): 95 % of control

CC(C)(CN1CCCN(CC(C)(C)C(=O)O)C1=O)C(=O)O
T/C (dose: 50.0 mg/kg/injection, schedule: Q01DX009 (ip), vehicle: saline): 93 % of control | T/C [10]: 94 % of control | T/C [11]: 98 % of control

CCCCCCC(=O)/C=C/c1cc(OC)c(OC)cc1OC
T/C [3]: 100 % of control | T/C [4]: 94 % of control | T/C [12]: 96 % of control

C=CC(=NC(C)(C)C)Nc1ccc(C(=O)OCC)cc1
T/C [3]: 113 % of control | T/C [4]: 106 % of control

O=C1NC(c2ccccc2)(c2ccccc2)C(=O)N1CNc1ccccn1
T/C [6]: 91 % of control | T/C [7]: 89 % of control | T/C [8]: 88 % of control

Cc1oc(C)c(-c2ccccc2)c1C(=O)N1CCN(C)CC1
T/C [6]: 98 % of control | T/C [7]: 98 % of control

CCOC(=O)CC(C)(O)C1CC1 (stereo not given)
T/C (dose: 25.0 mg/kg/injection, schedule: Q01DX009 (ip), vehicle: Klucel (hydroxypropylcellulose) (HPC)): 96 % of control | T/C (dose: 50.0 mg/kg/injection, schedule: Q01DX009 (ip), vehicle: Klucel (hydroxypropylcellulose) (HPC)): 101 % of control | T/C (dose: 100.0 mg/kg/injection, schedule: Q01DX009 (ip), vehicle: Klucel (hydroxypropylcellulose) (HPC)): 105 % of control and 94 % of control | T/C (dose: 200.0 mg/kg/injection, schedule: Q01DX009 (ip), vehicle: Klucel (hydroxypropylcellulose) (HPC)): 103 % of control and 122 % of control

CCCCC(C)C(=O)/C=C/c1ccc(Cl)c(Cl)c1 (stereo not given)
T/C [3]: 105 % of control | T/C [4]: 100 % of control | T/C [12]: 106 % of control

O=C(NCc1ccccc1)c1ccc(Cl)c(Cl)c1
T/C (dose: 25.0 mg/kg/injection, schedule: Q04DX003 (ip), vehicle: saline with Tween-80): 101 % of control | T/C (dose: 50.0 mg/kg/injection, schedule: Q04DX003 (ip), vehicle: saline with Tween-80): 104 % of control | T/C [13]: 90 % of control | T/C [14]: 95 % of control

CCOC(=O)CCc1ccc2c(c1)OCO2
T/C [10]: 100 % of control | T/C [13]: 91 % of control | T/C [11]: 104 % of control | T/C [14]: 100 % of control | T/C (dose: 400.0 mg/kg/injection, schedule: Q01DX009 (ip), vehicle: saline): 113 % of control | T/C (dose: 400.0 mg/kg/injection, schedule: Q04DX003 (ip), vehicle: saline with Tween-80): 91 % of control

Clc1ccc2nc(CBr)cnc2c1
T/C (dose: 6.25 mg/kg/injection, schedule: Q01DX009 (ip), vehicle: saline with Tween-80): 104 % of control | T/C [1]: 104 % of control | T/C [2]: 100 % of control

CC(C)CC1C(=O)N2CCCC2C2(O)OC(NC(=O)C3C=C4c5cccc6[nH]cc(c56)CC4N(C)C3)(C(C)C)C(=O)N12 (stereo not given)
T/C (dose: 2.5 mg/kg/injection, schedule: Q01DX009 (ip), vehicle: Klucel (hydroxypropylcellulose) (HPC)): 91 % of control | T/C (dose: 5.0 mg/kg/injection, schedule: Q01DX009 (ip), vehicle: Klucel (hydroxypropylcellulose) (HPC)): 90 % of control | T/C (dose: 20.0 mg/kg/injection, schedule: Q01DX009 (ip), vehicle: Klucel (hydroxypropylcellulose) (HPC)): 99 % of control | T/C (dose: 40.0 mg/kg/injection, schedule: Q01DX009 (ip), vehicle: Klucel (hydroxypropylcellulose) (HPC)): 101 % of control

O=[N+]([O-])c1cccc(N/N=C\c2cccc3c(/C=N/Nc4cccc([N+](=O)[O-])c4)c(Cl)n(-c4ccccc4)c23)c1
T/C [5]: 86 % of control

O=C1NC(=O)C2=C1CCCC2Br (stereo not given)
T/C (dose: 3.13 mg/kg/injection, schedule: Q01DX009 (ip), vehicle: distilled water + Tween-80): 99 % of control | T/C (dose: 6.25 mg/kg/injection, schedule: Q01DX009 (ip), vehicle: distilled water + Tween-80): 92 % of control | T/C (dose: 12.5 mg/kg/injection, schedule: Q01DX009 (ip), vehicle: distilled water + Tween-80): 117 % of control

CCOC(=O)C(=CNc1cc(C)ccn1)C(=O)OCC
T/C [3]: 104 % of control | T/C [4]: 95 % of control | T/C [15]: 95 % of control | T/C [12]: 100 % of control | T/C [16]: 100 % of control

CN1CCCC(Cl)(C(=O)c2ccccc2)C1 (stereo not given)
T/C [15]: 106 % of control | T/C [16]: 100 % of control

CC12CCC(S)CC1=CCC1C2CCC2(C)/C(=N/NC(N)=S)CCC12 (stereo not given)
T/C (dose: 25.0 mg/kg/injection, schedule: Q01DX009 (ip), vehicle: distilled water + Tween-80): 105 % of control | T/C (dose: 50.0 mg/kg/injection, schedule: Q01DX009 (ip), vehicle: distilled water + Tween-80): 100 % of control | T/C (dose: 100.0 mg/kg/injection, schedule: Q01DX009 (ip), vehicle: distilled water + Tween-80): 105 % of control | T/C (dose: 200.0 mg/kg/injection, schedule: Q01DX009 (ip), vehicle: distilled water + Tween-80): 98 % of control | T/C (dose: 400.0 mg/kg/injection, schedule: Q01DX009 (ip), vehicle: distilled water + Tween-80): 107 % of control

CCOP(=O)(/C=C1/C(=O)OCC1(C)C)OCC
T/C [15]: 100 % of control | T/C [16]: 101 % of control | T/C (dose: 400.0 mg/kg/injection, schedule: Q04DX003 (ip), vehicle: saline): 104 % of control

Cc1nc(-c2nc(C(=O)NCCC[S+](C)C)cs2)cs1
T/C [17]: 104 % of control

COc1ccc(CC(=O)Nc2ccc(OC)c(OC)c2)cc1OC
T/C (dose: 25.0 mg/kg/injection, schedule: Q01DX009 (ip), vehicle: other): 92 % of control | T/C (dose: 50.0 mg/kg/injection, schedule: Q01DX009 (ip), vehicle: other): 91 % of control | T/C (dose: 100.0 mg/kg/injection, schedule: Q01DX009 (ip), vehicle: other): 95 % of control | T/C (dose: 200.0 mg/kg/injection, schedule: Q01DX009 (ip), vehicle: other): 87 % of control | T/C (dose: 400.0 mg/kg/injection, schedule: Q01DX009 (ip), vehicle: other): 92 % of control

O=C(O)C1CSC(c2coc3ccccc3c2=O)N1 (stereo not given)
T/C (dose: 50.0 mg/kg/injection, schedule: Q01DX009 (ip), vehicle: suspension in saline): 108 % of control | T/C (dose: 100.0 mg/kg/injection, schedule: Q01DX009 (ip), vehicle: suspension in saline): 117 % of control | T/C (dose: 200.0 mg/kg/injection, schedule: Q01DX009 (ip), vehicle: suspension in saline): 108 % of control

CCc1cccc(C)c1NC(=O)C(=O)CC(=O)c1ccccc1Cl
T/C [17]: 103 % of control | T/C (dose: 100.0 mg/kg/injection, schedule: Q01DX005 (ip), vehicle: saline): 107 % of control | T/C (dose: 200.0 mg/kg/injection, schedule: Q01DX005 (ip), vehicle: saline): 103 % of control

COc1ccc(OC)c2c(NCCNCCO)cc(NCCNCCO)nc12
T/C (dose: 15.0 mg/kg/injection, schedule: Q01DX005 (ip), vehicle: saline): 100 % of control | T/C (dose: 30.0 mg/kg/injection, schedule: Q01DX005 (ip), vehicle: saline): 95 % of control | T/C [9]: 97 % of control

c1ccc(N[n+]2ccc3ccccc3c2)cc1
T/C (dose: 6.25 mg/kg/injection, schedule: Q01DX009 (ip), vehicle: distilled water + alcohol): 104 % of control | T/C (dose: 12.5 mg/kg/injection, schedule: Q01DX009 (ip), vehicle: distilled water + alcohol): 104 % of control | T/C (dose: 25.0 mg/kg/injection, schedule: Q01DX009 (ip), vehicle: distilled water + alcohol): 102 % of control
